Laboratory results as given in patent EP2444396A1, “PHOTOPROTECTIVE COMPOSITION” (Apoteknos Para La Piel, S.L., priority 2009, dated 2010).
“And” between values parts separate entries of the source, which are not always exact repeats. Equal entries are not always repeated. Marks after values point to notes of the source that are not given here.

Experiments:
[1] = UV spectrum: wavelengths of maximum absorption and absorbance (Cecil 2021 UV-Visible Spectrophotometer); assay type: physicochemical; details: for UV spectrum A (a.u): absorbance at the maximum of the same line; for UV spectrum λ (nm): wavelengths of the maximum absorption
ERβ = target: T1, ERβ (Homo sapiens, UniProt Q92731); assay: Estrogenicity reporter gene bioassay (luciferase activity) in HELN-ERβ cells; assay type: cell-based
T1 construct: expressed in transfected cells; host or cells: HeLa (HELN-ERβ)
Description: Briefly, the transactivation bioassay (Reporter gene assay) used are based on the use of breast and uterine cancer cell lines transfected with different native or modified hormone receptors. The resulting cell lines further contain a reporter gene regulated by estrogens through the estrogen response element, the globin promoter and the luciferase gene.
HELN-ERα and HELN-ERβ cell lines were obtained by means of transfecting the HeLa uterine cancer cell line. In a first phase, said cells were transfected with an estrogen sensitive response element and then with the estrogen receptor alpha or beta (ERα or ERβ). The selection of clones resistant to geneticin and puromycin was performed using a concentration of 1 mg/mL and 0.5 mg/mL, respectively. The maintenance medium as well as the experimental medium of these 2 cell lines is DMEM F12 without phenol red supplemented with 6% of FBS (lacking of estrogens), 1% of penicillin / streptomycin, 1 mg/mL of geneticin and 0.5 µg/mL of puromycin.
The cells were seeded at a density of 5x10^4 cells per well in white opaque 96 well plates in 150 µL of experimental medium. After 8 hours, the compounds to be assayed (p-nitrolophine and estradiol) were prepared (concentrated 4x) in the same medium and were added to each well (50 µl). The cells were incubated for 16 hours at 37°C. At the end of the incubation, the medium was removed and replaced with fresh medium containing […] luciferin [at that concentration, luciferin diffuses into cell producing a luminescent signal which is stable after 5 minutes and for at least 2 hours]. The plates were then introduced in the luminometer to measure the luminescence for 2 seconds. A YicroBeta Trilux luminometer (EGG Wallac) apparatus was used to detect luciferase activity.
The assays were preformed in quadruple for each concentration (0.01-10 µM) in at least three independent experiments. […] The values of luciferase activity obtained were analyzed using the one-way ANOVA statistic test. The differences were considered significant when P was less than […] (P < 0.05).

[2] = tested on: MCF-7 breast cancer cell line; assay: E-Screen cell proliferation test; assay type: cell-based, human; details: MCF-7 cells, over control
Description: The E-Screen proliferation test is based on the use of MCF-7 breast cancer cell line. The MCF-7 cells [which endogenously expressed the estrogen receptor alpha (ERα)], respond to the treatment with estradiol increasing its proliferative rate, synthesizing new proteins and transcribing certain specific genes. […] The test compares the number of cells or the cell proliferation obtained after 6 days of culture. The cells grow in culture medium supplemented with human serum lacking of estrogens, in the presence and/or absence of estradiol as well as of the chemical compounds suspected of having estrogenic activity. The E-Screen test was performed following the methodology previously described by Soto et al. ["An in culture bioassay to assess the estrogenicity of xenobiotics. […] Health Perspect. 103:844-850; 1995]. […] The assay was ended after 144 hours of subculture (exponential phase) after drawing out the medium and fixing the cells for the application of sulforhodamine-B technique. Finally, the cell growth for each experimental group is related to the growth obtained for the negative control (absence of hormone) and with respect to estradiol (positive control). Once the E-Screen test is performed, the maximum cell proliferation rate induced by the compound also known as proliferative effect (PE) was established by calculating the ratio existing between the maximum proliferation rate obtained for the compound and the proliferation rate of the negative control. The proliferation data corresponding with the successive dilutions of the compound were transformed after the application of the correction factor for the dilution of each experimental point, the arithmetic mean of the data obtained being calculated. Another parameter is the relative proliferative efficiency (RPE). […] In this assay, the estrogenicity E-Screen test commonly used to identify the hormonal activity of compounds interacting specifically with the estrogen receptor alpha (ERα), has been used. The assays were performed in triplicate for each concentration (range: 300-0.003 µg/ml) in at least three independent experiments.

[3] = tested on: MCF-7 breast cancer cell line; assay: E-Screen cell proliferation test; assay type: cell-based, human; parameters: dose or concentration left out as unconfirmed; details: 144 h
[4] = tested on: inflammation induced by phorbol 12-myristate-13-acetate (PMA); assay: Topical anti-inflammatory activity: ear inflammation induced by PMA in mice; assay type: in vivo; parameters: RE / RE Average: unit not given here; details: 4 hours
Protocol: The topical anti-inflammatory activity of p-nitrolophine has been analyzed in this study since erythema is a inflammatory process. Specifically, the inhibition of inflammation induced by phorbol 12-myristate-13-acetate (PMA) was evaluated and compared with an anti-inflammatory product of reference (indometacin). 37 mice were divided into the following groups: positive control group (PMA 0.5 mg); negative control group (indometacin 0.5 mg); treated groups (0.5 mg and 1 mg of p-nitrolophine). All the solutions were prepared using acetone (ppa) as vehicle. 20 µL of solution of 25 mg/mL of phorbol 12-myristate-13-acetate (PMA) [Fluka cod 79346] (10 µL in each face) was administered in the right ear of each mouse. Immediately after administering the PMA, nothing more was administered into the positive control group; 20 µL of the solution of 25 mg/mL of indometacin was administered to the negative control group, and 20 µL of the solution of 25 or 50 mg/mL of 4-nitrolophine was administered in the same manner to the treated groups. Animals having no lesions or skin and ear irritation were used.
After 4 hours of post-treatment, the mice were sacrificed through cervical fracture and a portion of 6 mm in diameter was obtained from each ear with a hollow punch which was weight in precision analytical balance. The difference in weight (Δ) between the right ear (treated) and the left ear (non treated) for each animal and for each group were calculated. The percentage of inhibition (% inh) was estimated and calculated according to the following equation: % inh = 100(1-Δt/Δc) [formula] wherein Δt represents the difference in the treated groups and Δc the difference for the […].
In order to analyze the results, an one way ANOVA and Dunnet test for multiple comparison was used, values of P<0.05 were considered significant. A software, Graphpad Instat Version 3.06, was used for such purposes.

[5] = tested on: Erythema induced by UVB radiation in mouse; assay: Photoprotection: erythema induced by UVB radiation in mouse skin; assay type: in vivo; parameters: key to Erythema induced by UVB radiation in mouse: presence (+); absence (-); details: individual animals No. 1-10; 0.5% gel topical, about 2.5 kJ/m^2 UVB, 24 hours after exposure
Description: The effect of p-nitrolophine and m-nitrolophine on erythema due to exposing the mouse skin to an irradiation source at maximum in the UVB region has been studied in these assays. The results obtained have been compared with the effect of 4-methylbenzylidene camphor (P5000) a substance considered as a UVB solar filter and with the effect of butyl methoxydibenzoylmethane (P1789) an UVA type filter, both products being commonly used in antisolar cosmetics.
35 male mice weighing more than 20 grams have been used. After receiving them, the animals were acclimated for 7 days at the place where the assays were preformed, they were being placed in a cage with controlled temperature (22°C), with relative humidity between 50% and 75%, replacing fresh filtered air approximately 10 times per hour and with 12 h light/dark cycles (7.00 - 19.00 light and from 19.00 to 7.00 dark). For this period and during the experimental period, the animals were fed ad libitum with standard diet for rodents and running water as drink.
The animals were randomly distributed into 4 experimental groups according to Table 7. The products to be tested were directly used, applying them in the form of a gel on an area of the skin such that each animal form its own control.
The test was performed following the method described by Winder et al. ["A study of Pharmacological influences on ultraviolet erythema in guinea pigs". Arch. Int Pharmacodyn, 116:261-292; 1958] and by other authors [Wendy et al. "The local antinociceptive and topical antiinflamatory effects of propyl gallate in rodents". Br. J. Pharmacol, 58:573 -581; 1976; Katiyar et al. "Protective Effects of Silymarin Against Photocarcinogenesis in a Mouse Skin Model". J Natl Cancer Inst 89:556-65; 1997] with slight modifications. The day […] the assay, as much hair as possible were removed from the animals by applying a layer of commercial hair-removing cream to remove all the trace of hair and to leave the skin of the back completely bare. The rest of the hair-removing cream were removed by means of washing and rinsing with running water and the animals were the returned to their corresponding cages where they remained until the following day.
On the day of the assay, the substances to be assayed were blindly applied on the back of the previously labelled animals following a random pattern (randomized). After applying the corresponding treatments, the animals were placed and pinned to the presentation platform of the equipment. The animals were then placed 8 cm from an ultraviolet light source of 4*40w with 313 nm of fundamental emission and a range comprised approximately between 290 and 350 nm and with an anti-UVC filter. The emission spectrum of said light source is depicted in Figure 1.
The exposure was maintained until all the animals have received an approximate total dose of 2.5 kJ/m^2. The dose of irradiation applied was determined by means of a ultraviolet light detector, the response curve of which is shown in Figure 2.
Twenty four hours after ending the exposure, the back of the animals was photographed and they were returned to their cages. The evaluation of erythema was performed by means of a positive/negative criterion, the percentage of protected animals being obtained. The statistic significance of the difference was evaluated by means of the non-parametric Fisher Test.

[6] = Absorption spectrum in methanol (195 - 400 nm); assay type: physicochemical; details: peak wavelength, 10 mg/ml
Protocol: In order to determine the absorption spectrum, a solution of 10 mg/ml of methanol was prepared from each of the substances. The methanol in turn was used to adjust the zero absorbance in each of the wavelengths in the range of 195 - 400 nm.

T1 sequence (Q92731 whole entry, species assumed): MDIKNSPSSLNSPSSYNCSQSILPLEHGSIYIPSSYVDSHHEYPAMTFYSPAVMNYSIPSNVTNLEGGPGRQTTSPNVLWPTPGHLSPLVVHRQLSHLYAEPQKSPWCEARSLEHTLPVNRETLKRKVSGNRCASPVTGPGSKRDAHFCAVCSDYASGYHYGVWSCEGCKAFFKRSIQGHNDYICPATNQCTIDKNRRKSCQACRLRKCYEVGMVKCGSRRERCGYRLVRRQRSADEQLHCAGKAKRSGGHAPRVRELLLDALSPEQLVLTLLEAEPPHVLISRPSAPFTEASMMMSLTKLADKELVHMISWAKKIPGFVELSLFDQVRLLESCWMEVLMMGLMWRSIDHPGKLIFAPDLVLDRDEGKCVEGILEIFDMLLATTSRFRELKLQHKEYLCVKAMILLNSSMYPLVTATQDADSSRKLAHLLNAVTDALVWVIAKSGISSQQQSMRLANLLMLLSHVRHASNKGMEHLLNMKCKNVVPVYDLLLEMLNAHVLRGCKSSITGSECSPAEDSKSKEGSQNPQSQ

Compound	UV spectrum A (a.u) [1]	UV spectrum λ (nm) [1]	other results
c1ccc(-c2nc(-c3ccccc3)c(-c3ccccc3)[nH]2)cc1 [2,4,5-triphenyl-1H-imidazole]	0.817 a.u and 1.093 a.u	209.0 nm and 296.0 nm	
O=[N+]([O-])c1ccc(-c2nc(-c3ccc([N+](=O)[O-])cc3)c(-c3ccc([N+](=O)[O-])cc3)[nH]2)cc1 [2,4,5-tris(4-nitrophenyl)-1H-imidazole]	1.410 a.u and 1.923 a.u	236.0 nm and 370.0 nm	
Clc1ccc(-c2nc(-c3ccccc3)c(-c3ccccc3)[nH]2)cc1 [2-(4-chlorophenyl)-4,5-diphenyl-1H-imidazole]	1.066 a.u and 1.371 a.u	231.5 nm and 308.0 nm	
Fc1ccc(-c2nc(-c3ccccc3)c(-c3ccccc3)[nH]2)cc1 [2-(4-fluorophenyl)-4,5-diphenyl-1H-imidazole]	1.117 a.u and 1.536 a.u	224.0 nm and 297.5 nm	
Oc1ccc(-c2nc(-c3ccccc3)c(-c3ccccc3)[nH]2)cc1 [2-(4-hydroxyphenyl)-4,5-diphenyl-1H-imidazole]	1.015 a.u and 1.364 a.u	225.0 nm and 300.5 nm	
COc1ccc(-c2nc(-c3ccccc3)c(-c3ccccc3)[nH]2)cc1 [2-(4-methoxyphenyl)-4,5-diphenyl-1H-imidazole]		252.5 nm and 297.5 nm	
O=[N+]([O-])c1ccc(-c2nc3c4ccccc4c4ccccc4c3[nH]2)cc1 [2-(4-nitrophenyl)-1H-phenanthro[9,10-d]imidazole]		202.0 nm and 256.0 nm and 388.5 nm	
CN(C)c1ccc(-c2nc(-c3ccccc3)c(-c3ccccc3)[nH]2)cc1 [2-[4-(N,N-dimethylamino)phenyl]-4,5-diphenyl-1H-imidazole]	2.032 a.u and 2.692 a.u	209.5 nm and 322 nm	
O=[N+]([O-])c1ccc(/C=C/c2nc(-c3ccccc3)c(-c3ccccc3)[nH]2)cc1 [(E)-2-(4-nitrostyryl)-4,5-diphenyl-1H-imidazole]		202.0 nm and 282.5 nm and 398.5 nm	
C(=C\c1nc(-c2ccccc2)c(-c2ccccc2)[nH]1)/c1ccccc1 [(E)-2-styryl-4,5-diphenyl-1H-imidazole]		235.2 nm and 344.4 nm	
C[C@]12CC[C@@H]3c4ccc(O)cc4CC[C@H]3[C@@H]1CC[C@@H]2O [E2, 17β-estradiol, reference compound]			activity at 0.01 µM (ERβ): 100%; maximum cell proliferation rate [2]: about 6.2 ± 0.3; Proliferative effect (PE) Mean [3]: 6, 62*
COc1ccc2c(c1)c(CC(=O)O)c(C)n2C(=O)c1ccc(Cl)cc1 [Indometacin, reference compound]			% inhibition [4]: 87.7** (q = 7.6) %; Average (Δ = RE - LE) ([4]; Dose (mg/ear) 0.5): 0.61; LE Average ([4]; left ear (non treated), group average, 0.5 mg group): 6.7; RE Average ([4]; right ear (treated), group average, 0.5 mg): 7.4; LE ([4]; weight of 6 mm portion of left ear (non treated), individual mice, 0.5 mg group): 6.2 and 6.4 and 6.9 (2×) and 6.7 (3×) and 7.6 and 5.5 and 7.2; RE ([4]; weight of 6 mm portion of right ear (treated), individual mice, 0.5 mg): 6.7 and 7.2 (2×) and 6.8 (2×) and 10 and 6.2 (2×) and 7.4 and 9.1
Cc1ccc(C=C2C(=O)C3(C)CCC2C3(C)C)cc1 (stereo not drawn) [P5000, 4-methylbenzylidene camphor, reference compound]			Erythema induced by UVB radiation in mouse [5]: -; maximum absorption [6]: 295 nm
